Assay results taken from US20210371455A1, “METHODS AND COMPOSITIONS COMPRISING REDUCED LEVEL OF HOST CELL PROTEINS” (Regeneron Pharmaceuticals, Inc., priority 2019, published 2021).

Tests used:
LPL = target: T1, LPL (Homo sapiens, UniProt P06858); test: PS-20 remaining with LPL, with and without Lalistat-2; assay type: biochemical; details: 0.05% PS-20 and 10 μg/mL LPL; t=0, 8 days and 15 days
T1 sequence (P06858 28-475): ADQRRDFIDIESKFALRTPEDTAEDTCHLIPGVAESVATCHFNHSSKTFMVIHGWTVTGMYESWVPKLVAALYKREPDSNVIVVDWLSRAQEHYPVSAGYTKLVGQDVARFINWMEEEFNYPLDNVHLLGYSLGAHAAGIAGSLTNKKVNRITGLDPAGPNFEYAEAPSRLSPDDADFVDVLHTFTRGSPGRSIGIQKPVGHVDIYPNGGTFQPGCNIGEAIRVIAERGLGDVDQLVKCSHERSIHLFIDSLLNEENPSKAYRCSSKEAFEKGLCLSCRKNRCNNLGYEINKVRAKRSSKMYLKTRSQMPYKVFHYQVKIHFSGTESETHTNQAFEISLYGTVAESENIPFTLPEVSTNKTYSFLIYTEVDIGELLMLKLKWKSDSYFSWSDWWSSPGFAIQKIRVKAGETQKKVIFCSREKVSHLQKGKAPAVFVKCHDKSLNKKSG
Description: Thus, addition of Lalistat only causes inhibition of LAL […]. […] The incubated samples were analyzed at t=0, 8 days and 15 days. […] Therefore, if lalistat2 can inhibit lipase activity in mAbs completely, then it means the LPL detected from mAbs were not active or abundance are too low to degrade PS20. The PS20 degradation seen from recombinant LPL may either due to the only LPL in high concentration can degrade PS20, or due to unexpected impurities presented in the recombinant LPL.

[1] = target: T2, lysosomal acid lipase (LAL) (Homo sapiens, UniProt P38571); details: cited from earlier work
T2 sequence (P38571 77-399): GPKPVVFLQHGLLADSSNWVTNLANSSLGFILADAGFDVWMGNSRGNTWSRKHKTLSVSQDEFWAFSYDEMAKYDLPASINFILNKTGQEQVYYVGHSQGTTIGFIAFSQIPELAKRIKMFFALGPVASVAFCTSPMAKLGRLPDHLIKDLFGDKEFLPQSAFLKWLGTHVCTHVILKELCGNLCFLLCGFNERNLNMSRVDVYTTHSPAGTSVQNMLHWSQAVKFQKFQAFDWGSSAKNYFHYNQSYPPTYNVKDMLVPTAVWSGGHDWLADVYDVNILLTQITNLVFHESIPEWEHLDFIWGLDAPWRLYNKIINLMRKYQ

[2] = target: T3, bovine milk lipoprotein lipase (Bos taurus, UniProt P11151); details: cited from earlier work
T3 construct: host or cells: bovine milk
T3 sequence (P11151 29-478): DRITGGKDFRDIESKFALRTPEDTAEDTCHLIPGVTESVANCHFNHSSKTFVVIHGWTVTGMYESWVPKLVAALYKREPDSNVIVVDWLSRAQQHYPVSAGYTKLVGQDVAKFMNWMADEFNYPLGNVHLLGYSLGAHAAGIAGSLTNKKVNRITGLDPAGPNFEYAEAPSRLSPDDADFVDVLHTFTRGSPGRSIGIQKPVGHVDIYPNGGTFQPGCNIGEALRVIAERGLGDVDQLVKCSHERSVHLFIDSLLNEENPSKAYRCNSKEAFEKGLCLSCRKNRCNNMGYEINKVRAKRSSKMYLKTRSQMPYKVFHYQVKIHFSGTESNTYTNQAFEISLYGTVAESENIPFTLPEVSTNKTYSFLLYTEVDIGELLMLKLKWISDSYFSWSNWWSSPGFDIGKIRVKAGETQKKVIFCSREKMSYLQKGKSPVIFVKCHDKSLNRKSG

LAL [3] = target: T4, LAL (Cricetulus griseus, UniProt G3HQY6); test: PS-20 remaining with LAL, with and without Lalistat-2; assay type: biochemical; parameters: made in house; host or cells: CHO cells; details: 0.05% PS-20 and 5 μg/mL LAL; t=0, 8 days and 15 days
T4 sequence (G3HQY6 19-397): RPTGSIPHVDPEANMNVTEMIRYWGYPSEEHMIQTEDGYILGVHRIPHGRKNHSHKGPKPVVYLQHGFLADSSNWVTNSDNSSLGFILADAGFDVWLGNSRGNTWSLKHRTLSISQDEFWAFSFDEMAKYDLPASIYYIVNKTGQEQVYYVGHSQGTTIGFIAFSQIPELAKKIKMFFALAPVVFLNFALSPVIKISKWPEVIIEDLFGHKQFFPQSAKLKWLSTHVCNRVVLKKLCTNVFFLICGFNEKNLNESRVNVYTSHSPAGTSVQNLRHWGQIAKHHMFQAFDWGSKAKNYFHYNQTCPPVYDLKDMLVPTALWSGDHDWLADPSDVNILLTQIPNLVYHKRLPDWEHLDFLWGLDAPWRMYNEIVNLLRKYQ
Description: The incubated samples were analyzed at t=0, 8 days and 15 days.

LAL [4] = target: T4, LAL; test: PS-20 remaining in mAb formulation with and without Lalistat-2; assay type: biochemical; parameters: endogenous in cells; host or cells: mAb production cells (CHO inferred); details: mAb-15 comprising 0.05% PS-20, 37° C., 15 days, 0.1 M Lalistat-2
Description: mAb-15 comprising 0.05% PS-20 was incubated at 37° C. for 15 days in presence and absence of 0.1 M Lalistat-2. The incubated samples were analyzed at t=0, 8 days and […].

O=C(Oc1nsnc1N1CCCCC1)N1CCCCC1 [Lalistat 2]
inhibition of LPL's activity (PS-20 remaining) (LPL): cannot inhibit LPL's activity
IC50 [1]: 152 nM
inhibition of bovine milk lipoprotein lipase [2]: does not exhibit inhibition
degradation of PS-20 in sample incubated with Lalistat-2 (LAL [3]): almost no degradation of PS-20
degradation of PS-20 in mAb formulation incubated with Lalistat-2 (LAL [4]): almost no degradation of PS-20
